{"source": "patent US20140357512A1", "about": "“HISTONE DEACETYLASE (HDAC) BIOMARKERS IN MULTIPLE MYELOMA” (priority 2013, published 2014)", "tested_on": "human myeloma cell line MM.1S", "assay": "SILAC acetylated-lysine peptide profiling, HDAC inhibitor vs DMSO (light/heavy ratio)", "type": "cell-based", "excerpt": "An embodiment of the invention comprises utilizing the SILAC method in order to quantitate changes in protein expression between two or more populations of cells. The SILAC method is a technique based on mass spectrometry that detects differences in protein abundance among samples using non-radioactive isotopic labeling. The SILAC method is known in the art, and described in detail in Ong et al., “Stable Isotope Labeling by Amino Acids in Cell Culture, SILAC, as a Simple and Accurate Approach to Expression Proteomics”, Molecular & Cellular Proteomics, vol. 1, pp. 376-386 (2002), which is incorporated herein by reference in its entirety.\nBriefly, the SILAC method involves growing two populations of cells in cell culture. The first population of cells is grown in growth media containing normal amino acids (“normal media”). The second population of cells is grown in media lacking a standard essential amino acid (such as lysine), but is then supplemented with a non-radioactive, isotopically labeled form of that essential amino acid (such as lysine labeled with ^13C atoms, rather than normal ^12C atoms), which is called “heavy media”. When the two populations of cells are each growing in the medium, they incorporate the amino acids into all of their proteins. The growth of cells maintained in the heavy media is no different from that in normal media. All peptides containing the heavy amino acids are heavier than their normal counterparts. The cells from each of the two populations of cells are lysed. The lysates from each of the two cell populations are then combined. The combined cell lysates are then analyzed by mass spectrometry. Pairs of chemically identical peptides of different stable isotope composition can be differentiated in a mass spectrometer due to their difference in mass. The ratio of peak intensities in the mass spectrum for such peptide pairs reflects the abundance ratio for the two proteins.\nThis example describes SILAC studies that were performed to compare the effects of three different HDAC inhibitors (Compound A, Compound B, and tubastatin A) to a control on a human multiple myeloma cell line. The HDAC inhibitors were also compared amongst themselves to determine differences in their effects.\nA human myeloma cell line MM.1S was grown using either ^12C (light) or ^13C (heavy) lysine containing culture medium. The “heavy” cells were treated with DMSO as the control, and the “light” cells were treated with a single HDAC inhibitor at 37° C. for 6 hours. The heavy and light cells were lysed, and the lysates were mixed in 1:1 ratio and digested with the protease trypsin. The acetylated lysine containing peptides (due to the action of the HDAC inhibitor) in the digested peptide pool were captured by a non-specific anti-acetylated lysine antibody cocktail (the antibodies identify both light and heavy acetylated peptides), and subjected to mass spectrometry analysis in order to identify thousands of individual peptides.\nThousands of peptides were identified in pairs (^12C and ^13C) due to their known mass differences. The amino acid sequence and quantitative ratio (Light/Heavy) of a given peptide in two differentially treated cell lysates were then determined and annotated with their possible protein (gene) sources.\nAs stated above, three HDAC inhibitors (Compound A, Compound B, and Tubastatin A) were used. Thus, the SILAC method was performed three times, with a different HDAC inhibitor compared to a control each time. Accordingly, there are three pairs of quantitative data in the table below, i.e., Compound A:DMSO, Compound B:DMSO, and Tubastatin A:DMSO. A cut-off of 1.30 fold of change (increase or decrease) was then used to determine “changed” or “+” in the table, and any peptides with a fold of change less than 1.3 fold were determined to be “unchanged” or “0” in the table. Those peptides that were not identified were marked as “NA” in the table. […]", "data": [{"smiles": "O=C(CCCCCCNC(=O)c1cnc(N(c2ccccc2)c2ccccc2)nc1)NO", "note": "[Compound A, 2-(diphenylamino)-N-(7-(hydroxyamino)-7-oxoheptyl)pyrimidine-5-carboxamide]", "values": [{"measurement": "light to heavy ratio (L/H ratio) of acetylated peptide AIFAGYK(ac)R (SEQ ID NO: 300)", "setting": "60S ribosomal protein L35a [15], RPL35A, drug:DMSO", "result": 0.86, "unit": "log 2"}, {"measurement": "light to heavy ratio (L/H ratio) of acetylated peptide KIEISQHAK(ac)YTCSFCGK (SEQ ID NO: 351)", "setting": "60S ribosomal protein L37a [36], RPL37A, drug:DMSO", "result": 0.00, "unit": "log 2"}, {"measurement": "light to heavy ratio (L/H ratio) of acetylated peptide SIDLK(ac)DK (SEQ ID NO: 572)", "setting": "60 kDa heat shock protein mitochondrial [87], gene HSPD1, inhibitor:DMSO", "result": 0.42, "unit": "log 2"}, {"measurement": "light to heavy ratio (L/H ratio) of acetylated peptide VMEHFIK(ac)LYK (SEQ ID NO: 276)", "setting": "78 kDa glucose-regulated protein [268], HSPA5, drug:DMSO", "result": 0.54, "unit": "log 2"}, {"measurement": "light to heavy ratio (L/H ratio) of acetylated peptide AK(ac)[…] (SEQ ID NO: 266)", "setting": "78 kDa glucose-regulated protein [326], HSPA5, drug:DMSO", "result": 0.44, "unit": "log 2"}, {"measurement": "light to heavy ratio (L/H ratio) of acetylated peptide FK(ac)[…] (SEQ ID NO: 333)", "setting": "116 kDa U5 small nuclear ribonucleoprotein component [790], EFTUD2, drug:DMSO", "result": 0.00, "unit": "log 2"}, {"measurement": "L/H ratio of acetylated peptide […](ac)LAR (SEQ ID NO: 19)", "setting": "ACADVL [428], log 2 scale, drug vs DMSO", "result": 0.00}, {"measurement": "L/H ratio of acetylated peptide LDHLAEK(ac)FR (SEQ ID NO: 20)", "setting": "ACTN1 [398], log 2 scale, drug vs DMSO", "result": 0.00}, {"measurement": "light to heavy ratio (L/H ratio) of acetylated peptide IFGSNK(ac)WTTEQQQR (SEQ ID NO: 306)", "setting": "ADP-ribosylation factor-like protein 6-interacting protein 1 [96], ARL6IP1, drug:DMSO", "result": 1.00, "unit": "log 2"}, {"measurement": "light to heavy ratio (L/H ratio) of acetylated peptide TTLLYK(ac)LK (SEQ ID NO: 624)", "setting": "ADP-ribosylation factor-like protein 11 [31], gene ARL11, inhibitor:DMSO", "result": 0.49, "unit": "log 2"}, {"measurement": "light to heavy ratio (L/H ratio) of acetylated peptide IFK(ac)SDGLR (SEQ ID NO: 280)", "setting": "ADP/ATP translocase 1 [166], SLC25A4, drug:DMSO", "result": 0.56, "unit": "log 2"}, {"measurement": "light to heavy ratio (L/H ratio) of acetylated peptide ITK(ac)SDGIR (SEQ ID NO: 587)", "setting": "ADP/ATP translocase 3 [166], gene SLC25A6, inhibitor:DMSO", "result": 0.44, "unit": "log 2"}, {"measurement": "L/H ratio of acetylated peptide", "setting": "AK(ac)HDELTYF (SEQ ID NO: 497), Cystatin-B [91], CSTB", "result": "−0.88", "unit": "log 2"}, {"measurement": "light to heavy ratio (L/H ratio) of acetylated peptide, log 2 scale", "setting": "ALDLNLK(ac)HQILPK (SEQ ID NO: 248), Cytochrome b-c1 complex subunit 7 [72], UQCRB", "result": "−0.50"}, {"measurement": "L/H ratio of acetylated peptide LK(ac)[…] (SEQ ID NO: 21)", "setting": "ANP32B [101], log 2 scale, drug vs DMSO", "result": 0.00}, {"measurement": "L/H ratio of acetylated peptide […](ac)SLYGK (SEQ ID NO: 22)", "setting": "ANXA6 [63], log 2 scale, drug vs DMSO", "result": 0.00}, {"measurement": "L/H ratio of acetylated peptide MYFDK(ac)[…] (SEQ ID NO: 23)", "setting": "ATAD3A [491], log 2 scale, drug vs DMSO", "result": 0.00}, {"measurement": "L/H ratio of acetylated peptide IVEYEK(ac)EMEK (SEQ ID NO: 24)", "setting": "ATP5H [117], log 2 scale, drug vs DMSO", "result": 0.00}, {"measurement": "L/H ratio of acetylated peptide YYNK(ac)YINVK (SEQ ID NO: 12)", "setting": "ATP5J2 [54], log 2 scale, drug vs DMSO", "result": 0.54}, {"measurement": "light to heavy ratio (L/H ratio) of acetylated peptide QNK(ac)LEQVEK (SEQ ID NO: 271)", "setting": "ATP synthase subunit O mitochondrial [54], ATP50, drug:DMSO", "result": 0.46, "unit": "log 2"}, {"measurement": "light to heavy ratio (L/H ratio) of acetylated peptide STVAQLVK(ac)R (SEQ ID NO: 552)", "setting": "ATP synthase subunit alpha mitochondrial [261], gene ATP5A1, inhibitor:DMSO", "result": 0.39, "unit": "log 2"}, {"measurement": "light to heavy ratio (L/H ratio) of acetylated peptide ISEQSDAK(ac)LK (SEQ ID NO: 600)", "setting": "ATP synthase subunit alpha mitochondrial [539], gene ATP5A1, inhibitor:DMSO", "result": 0.46, "unit": "log 2"}, {"measurement": "light to heavy ratio (L/H ratio) of acetylated peptide […](ac)ETIAK (SEQ ID NO: 307)", "setting": "ATP synthase subunit b mitochondrial [233], ATP5F1, drug:DMSO", "result": 1.00, "unit": "log 2"}, {"measurement": "light to heavy ratio (L/H ratio) of acetylated peptide LVPLK(ac)ETIK (SEQ ID NO: 507)", "setting": "ATP synthase subunit beta mitochondrial [485], gene ATP5B, inhibitor:DMSO", "result": "−0.64", "unit": "log 2"}, {"measurement": "light to heavy ratio (L/H ratio) of acetylated peptide […](ac)QLTVK (SEQ ID NO: 279)", "setting": "ATP synthase subunit g mitochondrial [66], ATP5L, drug:DMSO", "result": 0.56, "unit": "log 2"}, {"measurement": "light to heavy ratio (L/H ratio) of acetylated peptide FEDPK(ac)FEVIEKPQA (SEQ ID NO: 325)", "setting": "ATP synthase-coupling factor 6 mitochondrial [99], ATP5J, drug:DMSO", "result": 0.00, "unit": "log 2"}, {"measurement": "light to heavy ratio (L/H ratio) of acetylated peptide SAQEAYK(ac)SYIR (SEQ ID NO: 502)", "setting": "ATP-dependent RNA helicase DDX18 [584], gene DDX18, inhibitor:DMSO", "result": "−0.74", "unit": "log 2"}, {"measurement": "light to heavy ratio (L/H ratio) of acetylated peptide MQK(ac)[…] (SEQ ID NO: 526)", "setting": "Actin aortic smooth muscle [317], gene ACTA2, inhibitor:DMSO", "result": "−0.44", "unit": "log 2"}, {"measurement": "light to heavy ratio (L/H ratio) of acetylated peptide AFAK(ac)ELFLGK (SEQ ID NO: 627)", "setting": "Acyl-CoA dehydrogenase family member 9 mitochondrial [41], gene ACAD9, inhibitor:DMSO", "result": 0.49, "unit": "log 2"}, {"measurement": "light to heavy ratio (L/H ratio) of acetylated peptide YSAK(ac)DYFFK (SEQ ID NO: 319)", "setting": "Alpha-soluble NSF attachment protein [203], NAPA, drug:DMSO", "result": 1.00, "unit": "log 2"}, {"measurement": "light to heavy ratio (L/H ratio), log 2 scale, acetylated peptide SELTGK(ac)FEK (SEQ ID NO: 778)", "setting": "Annexin A5 [76], gene ANXA5, drug:DMSO", "result": 1.00}, {"measurement": "light to heavy ratio (L/H ratio) of acetylated peptide PAQGAK(ac)YR (SEQ ID NO: 305)", "setting": "Annexin A6 [9], ANXA6, drug:DMSO", "result": 1.00, "unit": "log 2"}, {"measurement": "light to heavy ratio (L/H ratio) of acetylated peptide TKYEK(ac)SLYSMIK (SEQ ID NO: 270)", "setting": "Annexin A6 [299], ANXA6, drug:DMSO", "result": 0.46, "unit": "log 2"}, {"measurement": "light to heavy ratio (L/H ratio) of acetylated peptide NDTSGEYK(ac)K (SEQ ID NO: 285)", "setting": "Annexin A6 [314], ANXA6, drug:DMSO", "result": 0.61, "unit": "log 2"}, {"measurement": "light to heavy ratio (L/H ratio) of acetylated peptide AINEAYK(ac)EDYHK (SEQ ID NO: 282)", "setting": "Annexin A6 [478], ANXA6, drug:DMSO", "result": 0.59, "unit": "log 2"}, {"measurement": "light to heavy ratio (L/H ratio) of acetylated peptide NKPLFFADK(ac)LYK (SEQ ID NO: 298)", "setting": "Annexin A6 [607], ANXA6, drug:DMSO", "result": 0.78, "unit": "log 2"}]}]}
